{"source": "ChEMBL document CHEMBL3045456", "about": "“Biological Activity of Carpropamid (KTU 3616)” (1997)", "key": {"Pyricularia grisea [1]": {"system": "Pyricularia grisea", "assay": "Inhibition of Magnaporthe grisea infection of rice plant at 0.01 % sprayed onto inoculated rice seedlings at every 2 hr from 2 to 12 hr after inoculation measured after 8 hr", "format": "functional, organism-based"}, "[2]": {"system": "Pectobacterium carotovorum", "assay": "Antibacterial activity against Pectobacterium carotovorum assessed as colony color change after 2 days", "format": "functional, organism-based"}, "Botrytis cinerea [3]": {"system": "Botrytis cinerea", "assay": "Antifungal activity against Botryotinia fuckeliana assessed as colony color change after 2 to 7 days", "format": "functional, organism-based"}, "Phytophthora nicotianae [4]": {"system": "Phytophthora nicotianae", "assay": "Antifungal activity against Phytophthora nicotianae var. parasitica assessed as growth inhibition after 2 to 7 days", "format": "functional", "settings": "read-out: ED50 (the source's name)"}, "Nakataea oryzae [5]": {"system": "Nakataea oryzae", "assay": "Antifungal activity against Magnaporthe salvinii assessed as colony color change after 2 to 7 days", "format": "functional, organism-based"}, "Penicillium digitatum [6]": {"system": "Penicillium digitatum", "assay": "Antifungal activity against Penicillium digitatum assessed as growth inhibition after 2 to 7 days", "format": "functional", "settings": "read-out: ED50 (the source's name)"}, "Sclerotinia sclerotiorum [7]": {"system": "Sclerotinia sclerotiorum", "assay": "Antifungal activity against Sclerotinia sclerotiorum assessed as colony color change after 2 to 7 days", "format": "functional, organism-based"}, "[8]": {"system": "Botryosphaeria kuwatsukai", "assay": "Antifungal activity against Botryosphaeria berengeriana f.sp. pyricola assessed as growth inhibition after 2 to 7 days", "format": "functional", "settings": "read-out: ED50 (the source's name)"}, "[9]": {"system": "Xanthomonas campestris pv. oryzae", "assay": "Antibacterial activity against Xanthomonas campestris pv. oryzae assessed as colony color change after 2 days", "format": "functional, organism-based"}, "Thanatephorus cucumeris [10]": {"system": "Thanatephorus cucumeris", "assay": "Antifungal activity against Thanatephorus cucumeris assessed as growth inhibition after 2 to 7 days", "format": "functional", "settings": "read-out: ED50 (the source's name)"}, "Pythium [11]": {"system": "Pythium", "assay": "Antifungal activity against Pythium sp. assessed as growth inhibition after 2 to 7 days", "format": "functional", "settings": "read-out: ED50 (the source's name)"}, "Cytospora ceratosperma [12]": {"system": "Cytospora ceratosperma", "assay": "Antifungal activity against Valsa ceratosperma assessed as colony color change after 2 to 7 days", "format": "functional, organism-based"}, "Botrytis cinerea [13]": {"system": "Botrytis cinerea", "assay": "Antifungal activity against Botryotinia fuckeliana assessed as growth inhibition after 2 to 7 days", "format": "functional", "settings": "read-out: ED50 (the source's name)"}, "[14]": {"system": "Botryosphaeria kuwatsukai", "assay": "Antifungal activity against Botryosphaeria berengeriana f.sp. pyricola assessed as colony color change after 2 to 7 days", "format": "functional, organism-based"}, "Pyricularia oryzae [15]": {"system": "Pyricularia oryzae", "assay": "Inhibition of spore germination in Magnaporthe oryzae up to 40 ppm after 24 hr", "format": "functional, organism-based"}, "Thanatephorus cucumeris [16]": {"system": "Thanatephorus cucumeris", "assay": "Antifungal activity against Thanatephorus cucumeris assessed as colony color change after 2 to 7 days", "format": "functional, organism-based"}, "Sclerotinia sclerotiorum [17]": {"system": "Sclerotinia sclerotiorum", "assay": "Antifungal activity against Sclerotinia sclerotiorum assessed as growth inhibition after 2 to 7 days", "format": "functional", "settings": "read-out: ED50 (the source's name)"}, "Phytophthora nicotianae [18]": {"system": "Phytophthora nicotianae", "assay": "Antifungal activity against Phytophthora nicotianae var. parasitica assessed as colony color change after 2 to 7 days", "format": "functional, organism-based"}, "Nakataea oryzae [19]": {"system": "Nakataea oryzae", "assay": "Antifungal activity against Magnaporthe salvinii assessed as growth inhibition after 2 to 7 days", "format": "functional", "settings": "read-out: ED50 (the source's name)"}, "[20]": {"system": "Pectobacterium carotovorum", "assay": "Antibacterial activity against Pectobacterium carotovorum assessed as growth inhibition after 2 days", "format": "functional", "settings": "48 h, read-out: ED50 (the source's name)"}, "Bipolaris oryzae [21]": {"system": "Bipolaris oryzae", "assay": "Antifungal activity against Bipolaris oryzae assessed as colony color change after 2 to 7 days", "format": "functional, organism-based"}, "Bipolaris oryzae [22]": {"system": "Bipolaris oryzae", "assay": "Antifungal activity against Bipolaris oryzae assessed as growth inhibition after 2 to 7 days", "format": "functional", "settings": "read-out: ED50 (the source's name)"}, "Alternaria brassicicola [23]": {"system": "Alternaria brassicicola", "assay": "Antifungal activity against Alternaria brassicicola assessed as growth inhibition after 2 to 7 days", "format": "functional", "settings": "read-out: ED50 (the source's name)"}, "Fusarium fujikuroi [24]": {"system": "Fusarium fujikuroi", "assay": "Antifungal activity against Fusarium fujikuroi assessed as colony color change after 2 to 7 days", "format": "functional, organism-based"}, "Pseudomonas [25]": {"system": "Pseudomonas", "assay": "Antibacterial activity against Pseudomonas lachrymans assessed as growth inhibition after 2 days", "format": "functional", "settings": "48 h, read-out: ED50 (the source's name)"}, "[26]": {"system": "Xanthomonas campestris pv. oryzae", "assay": "Antibacterial activity against Xanthomonas campestris pv. oryzae assessed as growth inhibition after 2 days", "format": "functional", "settings": "48 h, read-out: ED50 (the source's name)"}, "Cytospora ceratosperma [27]": {"system": "Cytospora ceratosperma", "assay": "Antifungal activity against Valsa ceratosperma assessed as growth inhibition after 2 to 7 days", "format": "functional", "settings": "read-out: ED50 (the source's name)"}, "Pyricularia oryzae [28]": {"system": "Pyricularia oryzae", "assay": "Antifungal activity against Magnaporthe oryzae assessed as colony color change after 2 to 7 days", "format": "functional, organism-based"}, "[29]": {"system": "Fusarium oxysporum f. sp. lycopersici", "assay": "Antifungal activity against Fusarium oxysporum f. sp. lycopersici assessed as growth inhibition after 2 to 7 days", "format": "functional", "settings": "read-out: ED50 (the source's name)"}, "Alternaria brassicicola [30]": {"system": "Alternaria brassicicola", "assay": "Antifungal activity against Alternaria brassicicola assessed as colony color change after 2 to 7 days", "format": "functional, organism-based"}, "Verticillium dahliae [31]": {"system": "Verticillium dahliae", "assay": "Antifungal activity against Verticillium dahliae assessed as colony color change after 2 to 7 days", "format": "functional, organism-based"}, "Pythium [32]": {"system": "Pythium", "assay": "Antifungal activity against Pythium sp. assessed as colony color change after 2 to 7 days", "format": "functional, organism-based"}, "Colletotrichum lagenaria [33]": {"system": "Colletotrichum lagenaria", "assay": "Antifungal activity against Colletotrichum lagenaria assessed as growth inhibition after 2 to 7 days", "format": "functional", "settings": "read-out: ED50 (the source's name)"}, "Pseudomonas [34]": {"system": "Pseudomonas", "assay": "Antibacterial activity against Pseudomonas lachrymans assessed as colony color change after 2 days", "format": "functional, organism-based"}, "Pyricularia grisea [35]": {"system": "Pyricularia grisea", "assay": "Inhibition of Magnaporthe grisea infection of rice plant at 0.01 % sprayed onto inoculated rice seedlings at every 2 hr from 2 to 12 hr after inoculation measured after 6 hr", "format": "functional, organism-based"}, "Penicillium digitatum [36]": {"system": "Penicillium digitatum", "assay": "Antifungal activity against Penicillium digitatum assessed as colony color change after 2 to 7 days", "format": "functional, organism-based"}, "[37]": {"system": "Fusarium oxysporum f. sp. lycopersici", "assay": "Antifungal activity against Fusarium oxysporum f. sp. lycopersici assessed as colony colour change after 2 to 7 days", "format": "functional, organism-based"}, "Colletotrichum lagenaria [38]": {"system": "Colletotrichum lagenaria", "assay": "Antifungal activity against Colletotrichum lagenaria assessed as colony color change after 2 to 7 days", "format": "functional, organism-based"}, "Pyricularia oryzae [39]": {"system": "Pyricularia oryzae", "assay": "Inhibition of appressorium formation in Magnaporthe oryzae up to 40 ppm after 24 hr", "format": "functional, organism-based"}, "Pyricularia oryzae [40]": {"system": "Pyricularia oryzae", "assay": "Antifungal activity against Magnaporthe oryzae assessed as growth inhibition after 2 to 7 days", "format": "functional", "settings": "read-out: ED50 (the source's name)"}, "Verticillium dahliae [41]": {"system": "Verticillium dahliae", "assay": "Antifungal activity against Verticillium dahliae assessed as growth inhibition after 2 to 7 days", "format": "functional", "settings": "read-out: ED50 (the source's name)"}, "Pyricularia grisea [42]": {"system": "Pyricularia grisea", "assay": "Inhibition of Magnaporthe grisea infection of rice plant at 0.01 % sprayed onto inoculated rice seedlings at every 2 hr from 2 to 12 hr after inoculation measured after 10 hr", "format": "functional, organism-based"}, "Fusarium fujikuroi [43]": {"system": "Fusarium fujikuroi", "assay": "Antifungal activity against Fusarium fujikuroi assessed as growth inhibition after 2 to 7 days", "format": "functional", "settings": "read-out: ED50 (the source's name)"}, "Pyricularia oryzae [44]": {"system": "Pyricularia oryzae", "assay": "Inhibition of dark brown pigmentation formation in appressorium cells of Magnaporthe oryzae at > 0.1 ppm after 24 hr", "format": "functional, organism-based"}}, "note": "The source made the active and inactive calls. No cut-off for these calls is given here."}
{"smiles": "CC[C@]1(C(=O)N[C@H](C)c2ccc(Cl)cc2)[C@H](C)C1(Cl)Cl", "note": "(relative stereo) [trans-Carpropamid]", "values": [{"measurement": "inhibition", "setting": "Pyricularia grisea [1]", "result": "inactive"}, {"measurement": "Activity", "setting": "[2]", "result": "inactive"}, {"measurement": "Activity", "setting": "Botrytis cinerea [3]", "result": "inactive"}, {"measurement": "EC50", "setting": "Phytophthora nicotianae [4]", "result": 50, "unit": "µg/mL"}, {"measurement": "Activity", "setting": "Nakataea oryzae [5]", "result": "Active"}, {"measurement": "EC50", "setting": "Penicillium digitatum [6]", "result": "> 200", "unit": "µg/mL"}, {"measurement": "Activity", "setting": "Sclerotinia sclerotiorum [7]", "result": "inactive"}, {"measurement": "EC50", "setting": "[8]", "result": "> 200", "unit": "µg/mL"}, {"measurement": "Activity", "setting": "[9]", "result": "inactive"}, {"measurement": "EC50", "setting": "Thanatephorus cucumeris [10]", "result": "> 200", "unit": "µg/mL"}, {"measurement": "EC50", "setting": "Pythium [11]", "result": 200, "unit": "µg/mL"}, {"measurement": "Activity", "setting": "Cytospora ceratosperma [12]", "result": "Active"}, {"measurement": "EC50", "setting": "Botrytis cinerea [13]", "result": "> 200", "unit": "µg/mL"}, {"measurement": "Activity", "setting": "[14]", "result": "Active"}, {"measurement": "inhibition", "setting": "Pyricularia oryzae [15]", "result": "inactive"}, {"measurement": "Activity", "setting": "Thanatephorus cucumeris [16]", "result": "Active"}, {"measurement": "EC50", "setting": "Sclerotinia sclerotiorum [17]", "result": "> 200", "unit": "µg/mL"}, {"measurement": "Activity", "setting": "Phytophthora nicotianae [18]", "result": "inactive"}, {"measurement": "EC50", "setting": "Nakataea oryzae [19]", "result": "> 200", "unit": "µg/mL"}, {"measurement": "EC50", "setting": "[20]", "result": "> 200", "unit": "µg/mL"}, {"measurement": "Activity", "setting": "Bipolaris oryzae [21]", "result": "Active"}, {"measurement": "EC50", "setting": "Bipolaris oryzae [22]", "result": "> 200", "unit": "µg/mL"}, {"measurement": "EC50", "setting": "Alternaria brassicicola [23]", "result": "> 200", "unit": "µg/mL"}, {"measurement": "Activity", "setting": "Fusarium fujikuroi [24]", "result": "inactive"}, {"measurement": "EC50", "setting": "Pseudomonas [25]", "result": "> 200", "unit": "µg/mL"}, {"measurement": "EC50", "setting": "[26]", "result": "> 200", "unit": "µg/mL"}, {"measurement": "EC50", "setting": "Cytospora ceratosperma [27]", "result": "> 200", "unit": "µg/mL"}, {"measurement": "Activity", "setting": "Pyricularia oryzae [28]", "result": "Active"}, {"measurement": "EC50", "setting": "[29]", "result": "> 200", "unit": "µg/mL"}, {"measurement": "Activity", "setting": "Alternaria brassicicola [30]", "result": "Active"}, {"measurement": "Activity", "setting": "Verticillium dahliae [31]", "result": "Active"}, {"measurement": "Activity", "setting": "Pythium [32]", "result": "inactive"}, {"measurement": "EC50", "setting": "Colletotrichum lagenaria [33]", "result": "> 200", "unit": "µg/mL"}, {"measurement": "Activity", "setting": "Pseudomonas [34]", "result": "inactive"}, {"measurement": "inhibition", "setting": "Pyricularia grisea [35]", "result": "Active"}, {"measurement": "Activity", "setting": "Penicillium digitatum [36]", "result": "inactive"}, {"measurement": "Activity", "setting": "[37]", "result": "inactive"}, {"measurement": "Activity", "setting": "Colletotrichum lagenaria [38]", "result": "Active"}, {"measurement": "inhibition", "setting": "Pyricularia oryzae [39]", "result": "inactive"}, {"measurement": "EC50", "setting": "Pyricularia oryzae [40]", "result": "> 200", "unit": "µg/mL"}, {"measurement": "EC50", "setting": "Verticillium dahliae [41]", "result": "> 200", "unit": "µg/mL"}, {"measurement": "inhibition", "setting": "Pyricularia grisea [42]", "result": "inactive"}, {"measurement": "EC50", "setting": "Fusarium fujikuroi [43]", "result": "> 200", "unit": "µg/mL"}, {"measurement": "inhibition", "setting": "Pyricularia oryzae [44]", "result": "inactive"}]}
